Measured values from patent US10407467B2, “Polymyxin derivatives and their use in combination therapy together with different antibiotics” (priority 2013, dated 2019).
Counter-ions that a name gives are not always drawn. Like-named read-outs stand apart in the source and are kept apart here. Bridge positions count the residues as written; N and C are the ends. Square brackets hold non-standard residues; d marks the D form. Peptide text beside a SMILES is read from it. * marks the point of attachment. ξ: configuration not given here. Acetyl(3-pyridyl) = O=C(Cc1cccnc1)*; X18 = O=C([C@H]1CC[C@H](O)CC1)*; Thr(3ξ) = CC(O)[C@H](N)C(=O)O; Dab = NCC[C@H](N)C(=O)O; X23 = O=C(CCCN1CCOCC1)*; Bz = O=C(c1ccccc1)*

What was measured:
Assay type in all cases: cell-based
Klebsiella pneumoniae [1] = assay: MIC, sole activity (no second agent); conditions: for MIC: Klebsiella pneumoniae
Method: (§1) To evaluate the potency and spectrum of the compounds both alone and in combination with another agent, susceptibility testing was performed against up to four strains of each of the four Gram negative pathogens, Escherichia coli, Pseudomonas aeruginosa, Klebsiella pneumoniae and Acinetobacter baumannii.
(§2) The inoculum was prepared by making a direct suspension of isolated colonies (selected from an 18-24 hour Mueller-Hinton agar plate) adjusted to the 0.5 McFarland standard.
(§3) The assays were performed in duplicate.
(§4) In cases where the duplicate values varied by less than 2-fold, the lower of the two values is reported. If a variation of greater than 2-fold was observed, the assay was considered non-valid. Several of the compounds were subjected to multiple tests, and where this is the case, the MIC reflects the modal value obtained.
(§5) MICs were determined as described herein, except that a different supplier of Cation-adjusted MHB was used. […] Values are reported relative to Polymyxin B.

Escherichia coli = assay: MIC, sole activity (no second agent); conditions: for MIC: Escherichia coli
Method: as §1, §2, §3, §4, §5

Pseudomonas aeruginosa [2] = assay: MIC, sole activity (no second agent); conditions: for MIC: Pseudomonas aeruginosa
Method: as §1, §2, §3, §4, §5

Acinetobacter baumannii = assay: MIC, sole activity (no second agent); conditions: Table 6A; no second agent; different supplier of Cation-adjusted MHB
Method: as §1, §2, §3, §4, §5

Klebsiella pneumoniae [3] = assay: MIC, compound in combination with a second agent (broth microdilution); conditions: 1:1 (wt:wt) combination with Rifampicin
Method: as §1
(§6) Ratios of components in a combination, such as 1:1, refers to a weight to weight ratio. The minimum inhibitory concentration (MIC) refers to the total drug concentration (e.g. test compound plus second agent, such as Rifampicin).
as §2, §3, §4
(§7) The minimum inhibitory concentration refers to the total drug concentration (e.g. test compound plus Rifampicin). The compounds are used at equal mass within the combination. The weight refers to the mass of compound as used, for example the Example Compounds are used in their TFA or sulphate salt forms.
(§8) MICs refer to the total drug concentration. Thus, where a 1:1 combination is used, this is the amount of the test compound plus the second agent. For comparison, the MIC values for the second agent alone are also given.

Pseudomonas aeruginosa [4] = assay: as above; conditions: 1:1 (wt:wt) combination with Rifampicin
Method: as §1, §6, §2, §3, §4, §7, §8

[5] = Table 6A, no second agent, different supplier of Cation-adjusted MHB
[6] = in the absence of Rifampicin, strain ATCC 4352
[7] = in the absence of Rifampicin, strain ATCC25922
[8] = in the absence of Rifampicin, strain ATCC27853
[9] = MIC = total drug concentration, strain ATCC-BAA-2146
[10] = MIC = total drug concentration, strain CCUG-59348
[11] = MIC = total drug concentration, strain NCTC 13438
[12] = MIC = total drug concentration, strain CCUG 59626
[13] = MIC is total drug concentration
[14] = CCUG59348, read-out: MIC K. pneumoniae CCUG 59348
[15] = NCTC13442, read-out: MIC K. pneumoniae NCTC 13442
[16] = NCTC9001, read-out: MIC E. coli NCTC9001

## 2-(1- (Aminomethyl)cyclohexyl) ethanoyl Polymyxin B nonapeptide [Example A30]
Klebsiella pneumoniae [1]; [5]
  MIC K. pneumoniae ATCC 4352: 0.5 micrograms/mL
  MIC K. pneumoniae ATCC BAA-2146: 1 micrograms/mL
Escherichia coli; [5]
  MIC E. coli NCTC 13441: 1 micrograms/mL
Pseudomonas aeruginosa [2]; [5]
  MIC P. aeruginosa ATCC 27853: 0.5 micrograms/mL
  MIC P. aeruginosa CCUG 59347: 1 micrograms/mL
Acinetobacter baumannii
  MIC A. baumannii ATCC BAA-747: 8 micrograms/mL
  MIC A. baumannii NCTC 13424: 8 micrograms/mL

## 2-(1- Hydroxycyclohexyl)ethanoyl polymyxin B nonapeptide [Example A15]
Klebsiella pneumoniae [1]; [5]
  MIC K. pneumoniae ATCC 4352: 4 micrograms/mL
Escherichia coli; [5]
  MIC E. coli ATCC25922: 8 micrograms/mL
  MIC E. coli NCTC 13441: 8 micrograms/mL
Pseudomonas aeruginosa [2]; [5]
  MIC P. aeruginosa ATCC 27853: 4 micrograms/mL
  MIC P. aeruginosa CCUG 59347: 8 micrograms/mL
Acinetobacter baumannii
  MIC A. baumannii ATCC BAA-747: >8 micrograms/mL
  MIC A. baumannii NCTC 13424: >8 micrograms/mL

## CCCCCCC(O)C(=O)N[C@H](C(=O)N[C@@H](CCN)C(=O)N[C@H]1CCNC(=O)[C@H](C(C)O)NC(=O)[C@H](CCN)NC(=O)[C@H](CCN)NC(=O)[C@H](CC(C)C)NC(=O)[C@@H](CC(C)C)NC(=O)[C@H](CCN)NC1=O)C(C)O (mixture of isomers) [Example 19, 2-(RS)-2- Hydroxyoctanoyl polymyxin E nonapeptide]
Klebsiella pneumoniae [1]; [6]
  MIC K. pneumoniae ATCC 4352: 8 micrograms/mL
Escherichia coli; [7]
  MIC E. coli ATCC25922: 8 micrograms/mL
Pseudomonas aeruginosa [2]; [8]
  MIC P. aeruginosa ATCC 27853: 4 micrograms/mL
Klebsiella pneumoniae [3]; [9]
  MIC K. pneumoniae ATCC-BAA-2146: 2 micrograms/mL
Klebsiella pneumoniae [3]; [10]
  MIC K. pneumoniae CCUG-59348: 2 micrograms/mL
Klebsiella pneumoniae [3]; [11]
  MIC K. pneumoniae NCTC 13438: 0.5 micrograms/mL
Pseudomonas aeruginosa [4]; [12]
  MIC P. aeruginosa CCUG 59626: 1 micrograms/mL

## CC(C)C[C@@H]1NC(=O)[C@@H](Cc2ccccc2)NC(=O)[C@H](CCN)NC(=O)[C@@H](NC(=O)[C@H](CCN)NC(=O)[C@@H](NC(=O)CCCN2CCOCC2)C(C)O)CCNC(=O)[C@H](C(C)O)NC(=O)[C@H](CCN)NC(=O)[C@H](CCN)NC1=O (some centres unmarked) [Example 14, 4- Morpholinylbutanoyl polymyxin B nonapeptide, trifluoroacetate salt] (X23-[Thr(3ξ)][Dab][Dab][Dab][dF]L[Dab][Dab][Thr(3ξ)]; lactam 3-C)
Klebsiella pneumoniae [1]; [6]
  MIC K. pneumoniae ATCC 4352: >32 micrograms/mL
Escherichia coli; [7]
  MIC E. coli ATCC25922: 4 micrograms/mL
Pseudomonas aeruginosa [2]; [8]
  MIC P. aeruginosa ATCC 27853: 1 micrograms/mL
Klebsiella pneumoniae [3]; [9]
  MIC K. pneumoniae ATCC-BAA-2146: 2 micrograms/mL
Klebsiella pneumoniae [3]; [10]
  MIC K. pneumoniae CCUG-59348: 16 micrograms/mL
Pseudomonas aeruginosa [4]; [12]
  MIC P. aeruginosa CCUG 59626: 0.5 micrograms/mL

## CC(C)C[C@@H]1NC(=O)[C@@H](Cc2ccccc2)NC(=O)[C@H](CCN)NC(=O)[C@@H](NC(=O)[C@H](CCN)NC(=O)[C@@H](NC(=O)[C@H]2CC[C@H](O)CC2)C(C)O)CCNC(=O)[C@H](C(C)O)NC(=O)[C@H](CCN)NC(=O)[C@H](CCN)NC1=O (stereo partly drawn) [Example 25, trans-4-hydroxycyclohexane carbonyl polymyxin B nonapeptide] (X18-[Thr(3ξ)][Dab][Dab][Dab][dF]L[Dab][Dab][Thr(3ξ)]; lactam 3-C)
Klebsiella pneumoniae [1]; [6]
  MIC K. pneumoniae ATCC 4352: 4 micrograms/mL
Escherichia coli; [7]
  MIC E. coli ATCC25922: 8 micrograms/mL
Pseudomonas aeruginosa [2]; [8]
  MIC P. aeruginosa ATCC 27853: 0.125 micrograms/mL
Klebsiella pneumoniae [3]; [9]
  MIC K. pneumoniae ATCC-BAA-2146: 1 micrograms/mL
Klebsiella pneumoniae [3]; [10]
  MIC K. pneumoniae CCUG-59348: 8 micrograms/mL
Klebsiella pneumoniae [3]; [11]
  MIC K. pneumoniae NCTC 13438: 2 micrograms/mL
Pseudomonas aeruginosa [4]; [12]
  MIC P. aeruginosa CCUG 59626: 0.5 micrograms/mL

## CC(C)C[C@@H]1NC(=O)[C@@H](Cc2ccccc2)NC(=O)[C@H](CCN)NC(=O)[C@@H](NC(=O)[C@H](CCN)NC(=O)[C@@H](NC(=O)c2ccccc2)C(C)O)CCNC(=O)[C@H](C(C)O)NC(=O)[C@H](CCN)NC(=O)[C@H](CCN)NC1=O (some centres unmarked) [Example C3, Benzoyl polymyxin B nonapeptide, sulphate salt, reference compound] (Bz-[Thr(3ξ)][Dab][Dab][Dab][dF]L[Dab][Dab][Thr(3ξ)]; lactam 3-C)
Klebsiella pneumoniae [3]; [13]
  MIC K. pneumoniae ATCC-BAA-2146: 2 micrograms/mL
  MIC K. pneumoniae CCUG-59348: 8 micrograms/mL
  MIC K. pneumoniae NCTC 13438: 2 micrograms/mL
Pseudomonas aeruginosa [4]; [13]
  MIC P. aeruginosa CCUG 59626: 1 micrograms/mL

## CC(C)C[C@@H]1NC(=O)[C@@H](Cc2ccccc2)NC(=O)[C@H](CCN)NC(=O)[C@@H](NC(=O)[C@H](CCN)NC(=O)[C@@H](NC(=O)Cc2cccnc2)C(C)O)CCNC(=O)[C@H](C(C)O)NC(=O)[C@H](CCN)NC(=O)[C@H](CCN)NC1=O (some centres unmarked) [Example C5, 3-pyridyl ethanoyl polymyxin B nonapeptide, reference compound] ({Acetyl(3-pyridyl)}-[Thr(3ξ)][Dab][Dab][Dab][dF]L[Dab][Dab][Thr(3ξ)]; lactam 3-C)
Klebsiella pneumoniae [3]; [13]
  MIC K. pneumoniae ATCC-BAA-2146: 1 micrograms/mL
  MIC K. pneumoniae CCUG-59348: 4 micrograms/mL
  MIC K. pneumoniae NCTC 13438: 2 micrograms/mL
Pseudomonas aeruginosa [4]; [13]
  MIC P. aeruginosa CCUG 59626: 0.25 micrograms/mL

## CC(=O)O[C@H]1C[C@@]2(C)[C@@H](C[C@@H](O)[C@H]3[C@@]4(C)CC[C@@H](O)[C@@H](C)[C@@H]4CC[C@@]32C)/C1=C(\CCC=C(C)C)C(=O)O [Fusidic acid, reference compound]
Klebsiella pneumoniae [1]; Table 7I, K. pneumoniae ATCC4352, second agent none, read-out: MIC K. pneumoniae (ATCC4352)
  MIC: 16 µg/mL
Escherichia coli; Table 7I, E. coli ATCC25922, second agent none, read-out: MIC E. coli (ATCC25922)
  MIC: > 32 µg/mL

## C[C@@H](O)[C@H]1C(=O)N2C(C(=O)O)=C(S[C@@H]3CN[C@H](C(=O)N(C)C)C3)[C@H](C)[C@H]12 [Meropenem, reference compound]
Klebsiella pneumoniae [1]; ATCCBAA1706, K. pneumoniae ATCC BAA-1706, second agent none, read-out: MIC K. pneumoniae ATCC BAA-1706
  MIC: 16 µg/mL
Klebsiella pneumoniae [1]; CCUG59348, K. pneumoniae CCUG 59348, second agent none, read-out: MIC K. pneumoniae CCUG 59348
  MIC: > 32 µg/mL
Klebsiella pneumoniae [1]; NCTC13442, K. pneumoniae NCTC 13442, second agent none, read-out: MIC K. pneumoniae NCTC 13442
  MIC: 16 µg/mL
Escherichia coli; E. coli NCTC9001, second agent none, read-out: MIC E. coli (NCTC9001)
  MIC: 0.125 µg/mL
Pseudomonas aeruginosa [2]; CCUG59626, P. aeruginosa CCUG 59626, second agent none, read-out: MIC P. aeruginosa CCUG 59626
  MIC: 16 µg/mL

## Cc1onc(-c2ccccc2)c1C(=O)N[C@@H]1C(=O)N2[C@@H]1SC(C)(C)[C@@H]2C(=O)O [Oxacillin, reference compound]
Klebsiella pneumoniae [1]; Table 7G, K. pneumoniae ATCC4352, second agent none, read-out: MIC K. pneumoniae (ATCC4352)
  MIC: 16 µg/mL
Escherichia coli; Table 7G, E. coli ATCC25922, second agent none, read-out: MIC E. coli (ATCC25922)
  MIC: > 32 µg/mL

## CN(C)c1cc(NC(=O)CNC(C)(C)C)c(O)c2c1C[C@H]1C[C@H]3[C@H](N(C)C)C(O)=C(C(N)=O)C(=O)[C@@]3(O)C(O)=C1C2=O [Tigecycline, reference compound]
Klebsiella pneumoniae [1]; [14]
  MIC: 2 µg/mL
Klebsiella pneumoniae [1]; [15]
  MIC: 2 µg/mL
Escherichia coli; [16]
  MIC: 0.125 µg/mL
Pseudomonas aeruginosa [2]; CCUG59626, read-out: MIC P. aeruginosa CCUG 59626
  MIC: 16 µg/mL

## CN[C@H](CC(C)C)C(=O)N[C@H]1C(=O)N[C@@H](CC(N)=O)C(=O)N[C@H]2C(=O)N[C@H]3C(=O)N[C@H](C(=O)N[C@H](C(=O)O)c4cc(O)cc(O)c4-c4cc3ccc4O)[C@H](O)c3ccc(c(Cl)c3)Oc3cc2cc(c3O[C@@H]2O[C@H](CO)[C@@H](O)[C@H](O)[C@H]2O[C@H]2C[C@](C)(N)[C@H](O)[C@H](C)O2)Oc2ccc(cc2Cl)[C@H]1O [Vancomycin, reference compound]
Klebsiella pneumoniae [1]; [14]
  MIC: > 32 µg/mL
Klebsiella pneumoniae [1]; CCUG59626, read-out: MIC K. pneumoniae CCUG 59626
  MIC: > 32 µg/mL
Klebsiella pneumoniae [1]; [15]
  MIC: > 32 µg/mL
Escherichia coli; [16]
  MIC: > 32 µg/mL
